Results published in patent US9707267B2, “Beta-turn peptidomimetic cyclic compounds for treating dry eye” (Mimetogen Pharmaceuticals, Inc., priority 2008, dated 2017).
Several values for one entry are separate records, joined by “and”; a condition that tells them apart may be missing. Identical values can stand only once.

Key:
[1] = system: Scopolamine Induced Rat Dry Eye Model; test: Scopolamine induced rat dry eye model, Schirmer test (Example 5); format: in vivo; settings: ± SD
[2] = system: cultured rat conjunctival goblet cells; test: Goblet cell glycoconjugate secretion, ELLA with UEA-1 (Example 2); format: cell-based; settings: 2 hours; for Glycoconjugate Secretion, Mean ± sem: mean of rats; for Glycoconjugate Secretion, Mean ± SD: mean of rats/plates
Method: The culturing of conjunctival goblet cells from explant cultures was as previously described in Shatos, M. et al., “Isolation, Characterization, and Propagation of Rat Conjunctival Goblet Cells In Vitro,” IOVS 42:1455-1464 (2001), the entire content of which is incorporated herein by reference. The tissue was finely minced and individual pieces were anchored onto scored 6-well cultures dishes in 0.5 mL of complete RPMI-1640 (supplemented with 10% FBS, 2 mM glutamine and 100 μg/mL penicillin-streptomycin) and incubated at 37° C. in a humidified 5% CO2-atmosphere. Explant cultures were refed every 2 days. Within a few days, goblet cells migrated from the pieces and began to proliferate. After approximately one week, the tissue plugs were removed and the goblet cells were allowed to grow to confluence. Cells were passaged once by trypsinization of adherent cells with 0.05% trypsin-0.53 mM EDTA (pH 7.4), and plated in 8-well Laboratory Tek chamber slides (histochemistry) or in 96 well (proliferation), 24 well (secretion), or 6 well (western blots) culture plates with complete RPMI-1640 media.
To measure cell secretion, goblet cells were grown to confluence and then serum depleted for 2 hours prior to stimulation. Cells were incubated with compound D3 at 2, 10, and 50 μM, NGF at 0.1, 1 and 10 nM, and PMA at 0.1, 1, and 10 nM in serum-free RPMI for 2 hours. Goblet cell secretion was measured using an enzyme-linked lectin assay (ELLA). Briefly, an aliquot of the cell culture supernatant was transferred to a 96-well polystyrene microtiter plate in triplicate (Corning Life Sciences #2592, Fisher Scientific, Nepean, Ont). A dilution series of bovine submaxillary mucin (BSM) (Sigma, St. Louis, Mo.) was included on each plate as the standard (standard curve data and data showing that detection of BSM is linear between 0.003 and 0.1 μg not shown). The plates were coated by evaporation at 37° C. overnight. After, the plates were washed three times with wash buffer [PBS containing 0.3% BSA, 0.05% Tween-20] then blocked for nonspecific binding with PBS containing 3% BSA and 0.05% Tween-20 at 37° C. for 1 hour. The wells were rinsed three times in wash buffer, and then incubated in 2 μg/mL biotinylated UEA-1 diluted in wash buffer (Vector Labs, Burlingame, Calif.) at 37° C. for 1 hour. The wells were rinsed three times in wash buffer, and then incubated in 1 μg/mL HRP-conjugated neutravidin diluted in wash buffer (Pierce, Rockford, Ill.) at 37° C. for 1 hour. After the wells were rinsed three times in wash buffer, the color development was performed with TMB (Promega, Madison, Wis.) and stopped with 0.5N Sulfuric acid. The absorbance was read at 450 nm on a Benchmark Plus (Biorad). The goblet cells remaining in the culture wells were either scraped in RIPA buffer [1% TritonX-100, 20 mM Tris-HCl pH 7.5, 150 mM NaCl, 1.5 mM MgCl2, 1% Na deoxycholate, 1 mM EGTA, 1 mM EDTA, 0.1% SDS, 10% glycerol, 1 mM Na vanadate, 10 mM Na fluoride, 10 mM Na pyrophosphate, complete mini EDTA-free protease inhibitors (Roche Applied Science, Indianapolis, Ind.)] or 1M Tris-buffer (pH 7.5), collected and sonicated. The amount of protein in the cell homogenate was analyzed using the Bradford protein assay kit using a dilution series of bovine serum albumin (BSA) as the standard (BioRad, Montreal, PQ). Glycoconjugate secretion was normalized to total protein in the homogenate. Data was then expressed as fold increase above basal. […]

NCCCC[C@@H]1NC(=O)[C@H](CCC(=O)O)NC(=O)c2cc([N+](=O)[O-])ccc2OCCC(C(=O)NCC(=O)O)NC1=O (some centres unmarked) [Compound D3]
Schirmer's Test ([1]; 0.4% group, Day 2, before treatment start (day 5)): 9.6 ± 3.0 mm | Schirmer's Test ([1]; 0.4% group, Day −1, presurgical, before treatment start (day 5)): 11.9 ± 4.4 mm and 11.9 ± 4.2 mm | Schirmer's Test ([1]; 0.4% topical 1× daily Days 5-21, Day 5 (test before first instillation)): 7.9 ± 3.2 mm | Schirmer's Test ([1]; 0.4% topical 1× daily Days 5-21, Day 7): 7.9 ± 1.6 mm | Schirmer's Test ([1]; 0.4% topical 1× daily Days 5-21, Day 14): 8.6 ± 3.0 mm | Schirmer's Test ([1]; 0.4% topical 1× daily Days 5-21, Day 20): 7.2 ± 1.8 mm | Schirmer's Test ([1]; 0.4% topical 1× daily Days 5-21, Day 29 (after treatment stopped)): 9.4 ± 2.0 mm | Schirmer's Test ([1]; 1.0% group, Day 2, before treatment start (day 5)): 9.8 ± 4.0 mm and 9.8 ± 3.8 mm | Schirmer's Test ([1]; 1.0% group, Day −1, presurgical, before treatment start (day 5)): 11.3 ± 4.5 mm and 11.3 ± 3.0 mm | Schirmer's Test ([1]; 1.0% topical 1× daily Days 5-21, Day 5 (test before first instillation)): 7.9 ± 2.3 mm | Schirmer's Test ([1]; 1.0% topical 1× daily Days 5-21, Day 7): 9.5 ± 4.2 mm | Schirmer's Test ([1]; 1.0% topical 1× daily Days 5-21, Day 14): 7.3 ± 2.3 mm | Schirmer's Test ([1]; 1.0% topical 1× daily Days 5-21, Day 29 (after treatment stopped)): 9.0 ± 2.9 mm | Schirmer's Test ([1]; 2.5% group, Day 2, before treatment start (day 5)): 9.8 ± 2.4 mm | Schirmer's Test ([1]; 2.5% group, Day −1, presurgical, before treatment start (day 5)): 11.5 ± 2.2 mm and 11.5 ± 1.8 mm | Schirmer's Test ([1]; 2.5% topical 1× daily Days 5-21, Day 5 (test before first instillation)): 9.6 ± 1.8 mm | Schirmer's Test ([1]; 2.5% topical 1× daily Days 5-21, Day 20): 9.1 ± 2.3 mm | Schirmer's Test ([1]; 2.5% topical 1× daily Days 5-21, Day 29 (after treatment stopped)): 7.7 ± 1.6 mm | Glycoconjugate Secretion ([2]; 2 μM, Rat 2): 1.25 Fold increase above basal | Glycoconjugate Secretion ([2]; 2 μM, Rat 2 Plate 1): 2.5 μg glycoconjugate/mg total protein | Glycoconjugate Secretion ([2]; 2 μM, Rat 3): 2.14 Fold increase above basal | Glycoconjugate Secretion ([2]; 2 μM, Rat 3 Plate 1): 10.5 μg glycoconjugate/mg total protein | Glycoconjugate Secretion ([2]; 2 μM, Rat 4): 1.09 Fold increase above basal | Glycoconjugate Secretion ([2]; 2 μM, Rat 4 Plate 1): 9.3 μg glycoconjugate/mg total protein | Glycoconjugate Secretion, Mean ± sem ([2]; 2 μM): 1.49±0.33 Fold increase above basal | Glycoconjugate Secretion, Mean ± SD ([2]; 2 μM): 7.4 ± 4.3 μg glycoconjugate/mg total protein | Glycoconjugate Secretion, Mean ± sem ([2]; 2 μM, listed as MIM-D3): 1.49 ± 0.33 Fold increase above basal | Glycoconjugate Secretion ([2]; 10 μM, Rat 2): 1.25 Fold increase above basal | Glycoconjugate Secretion ([2]; 10 μM, Rat 2 Plate 1): 2.5 μg glycoconjugate/mg total protein | Glycoconjugate Secretion ([2]; 10 μM, Rat 3): 1.04 Fold increase above basal | Glycoconjugate Secretion ([2]; 10 μM, Rat 3 Plate 1): 5.1 μg glycoconjugate/mg total protein | Glycoconjugate Secretion ([2]; 10 μM, Rat 4): 1.35 Fold increase above basal | Glycoconjugate Secretion ([2]; 10 μM, Rat 4 Plate 1): 11.6 μg glycoconjugate/mg total protein | Glycoconjugate Secretion, Mean ± sem ([2]; 10 μM): 1.21 ± 0.09 Fold increase above basal | Glycoconjugate Secretion, Mean ± SD ([2]; 10 μM): 6.4 ± 4.7 μg glycoconjugate/mg total protein | Glycoconjugate Secretion ([2]; 50 μM, Rat 1): 1.38 Fold increase above basal | Glycoconjugate Secretion ([2]; 50 μM, Rat 1 Plate 2): 5.4 μg glycoconjugate/mg total protein | Glycoconjugate Secretion ([2]; 50 μM, Rat 2): 1.65 Fold increase above basal | Glycoconjugate Secretion ([2]; 50 μM, Rat 2 Plate 1): 3.3 μg glycoconjugate/mg total protein | Glycoconjugate Secretion ([2]; 50 μM, Rat 3): 1.16 Fold increase above basal | Glycoconjugate Secretion ([2]; 50 μM, Rat 3 Plate 1): 5.7 μg glycoconjugate/mg total protein | Glycoconjugate Secretion ([2]; 50 μM, Rat 4): 1.11 Fold increase above basal | Glycoconjugate Secretion ([2]; 50 μM, Rat 4 Plate 1): 9.5 μg glycoconjugate/mg total protein | Glycoconjugate Secretion, Mean ± sem ([2]; 50 μM): 1.33 ± 0.12 Fold increase above basal | Glycoconjugate Secretion, Mean ± SD ([2]; 50 μM): 6.0 ± 2.6 μg glycoconjugate/mg total protein

NGF: nerve growth factor (recombinant human), positive control
Schirmer's Test ([1]; 0.00053% group, Day 2, before treatment start (day 5)): 9.9 ± 4.9 mm and 9.9 ± 4.8 mm | Schirmer's Test ([1]; 0.00053% group, Day −1, presurgical, before treatment start (day 5)): 11.2 ± 3.7 mm and 11.2 ± 3.2 mm | Schirmer's Test ([1]; 0.00053% topical 1× daily Days 5-21, Day 20): 7.1 ± 2.4 mm | Glycoconjugate Secretion ([2]; 0.1 nM, Rat 1): 1.49 Fold increase above basal | Glycoconjugate Secretion ([2]; 0.1 nM, Rat 1 Plate 1): 7.6 μg glycoconjugate/mg total protein | Glycoconjugate Secretion ([2]; 0.1 nM, Rat 2): 1.20 Fold increase above basal | Glycoconjugate Secretion ([2]; 0.1 nM, Rat 2 Plate 1): 2.4 μg glycoconjugate/mg total protein | Glycoconjugate Secretion ([2]; 0.1 nM, Rat 3): 0.94 Fold increase above basal | Glycoconjugate Secretion ([2]; 0.1 nM, Rat 3 Plate 1): 4.6 μg glycoconjugate/mg total protein | Glycoconjugate Secretion ([2]; 0.1 nM, Rat 4): 1.24 Fold increase above basal | Glycoconjugate Secretion ([2]; 0.1 nM, Rat 4 Plate 1): 10.6 μg glycoconjugate/mg total protein | Glycoconjugate Secretion, Mean ± sem ([2]; 0.1 nM): 1.22 ± 0.11 Fold increase above basal | Glycoconjugate Secretion, Mean ± SD ([2]; 0.1 nM): 6.3 ± 3.6 μg glycoconjugate/mg total protein | Glycoconjugate Secretion ([2]; 1 nM, Rat 1): 2.67 Fold increase above basal | Glycoconjugate Secretion ([2]; 1 nM, Rat 1 Plate 1): 13.6 μg glycoconjugate/mg total protein | Glycoconjugate Secretion ([2]; 1 nM, Rat 2): 0.85 Fold increase above basal | Glycoconjugate Secretion ([2]; 1 nM, Rat 2 Plate 1): 1.7 μg glycoconjugate/mg total protein | Glycoconjugate Secretion ([2]; 1 nM, Rat 3): 1.00 Fold increase above basal | Glycoconjugate Secretion ([2]; 1 nM, Rat 3 Plate 1): 4.9 μg glycoconjugate/mg total protein | Glycoconjugate Secretion ([2]; 1 nM, Rat 4): 1.26 Fold increase above basal | Glycoconjugate Secretion ([2]; 1 nM, Rat 4 Plate 1): 10.8 μg glycoconjugate/mg total protein | Glycoconjugate Secretion, Mean ± sem ([2]; 1 nM): 1.44 ± 0.42 Fold increase above basal | Glycoconjugate Secretion, Mean ± SD ([2]; 1 nM): 7.8 ± 5.4 μg glycoconjugate/mg total protein | Glycoconjugate Secretion ([2]; 10 nM, Rat 1): 1.58 Fold increase above basal | Glycoconjugate Secretion ([2]; 10 nM, Rat 1 Plate 1): 10.4 μg glycoconjugate/mg total protein | Glycoconjugate Secretion ([2]; 10 nM, Rat 1 Plate 2): 4.4 μg glycoconjugate/mg total protein | Glycoconjugate Secretion ([2]; 10 nM, Rat 2): 1.49 Fold increase above basal | Glycoconjugate Secretion ([2]; 10 nM, Rat 2 Plate 1): 3.6 μg glycoconjugate/mg total protein | Glycoconjugate Secretion ([2]; 10 nM, Rat 2 Plate 2): 2.7 μg glycoconjugate/mg total protein | Glycoconjugate Secretion ([2]; 10 nM, Rat 3): 1.98 Fold increase above basal | Glycoconjugate Secretion ([2]; 10 nM, Rat 3 Plate 1): 9.7 μg glycoconjugate/mg total protein | Glycoconjugate Secretion ([2]; 10 nM, Rat 4): 1.19 Fold increase above basal | Glycoconjugate Secretion ([2]; 10 nM, Rat 4 Plate 1): 10.2 μg glycoconjugate/mg total protein | Glycoconjugate Secretion, Mean ± sem ([2]; 10 nM): 1.55±0.18 Fold increase above basal | Glycoconjugate Secretion, Mean ± SD ([2]; 10 nM): 6.8 ± 3.6 μg glycoconjugate/mg total protein
